Results: article PMC7489537, “Ser-653-Asn substitution in the acetohydroxyacid synthase gene confers resistance in weedy rice to imidazolinone herbicides in Malaysia” (PLoS ONE, 2020)
Changes are numbered by the printed parent chain.

Legend:
[1] = biological target: T1, AHAS (acetohydroxyacid synthase), weedy rice (Oryza sativa, UniProt Q6K2E8, S627N/V643M); experiment: AHAS inhibition assay, colorimetric acetoin at […] nm; assay type: biochemical; settings: susceptible (S) population; partially purified leaf extract; 60 min incubation; read-out: I50
T1 construct: gene ALS1; native enzyme, partially purified leaf extract; Pro93 and Met669 (Arabidopsis numbering); resistant weedy rice allele (S653N) deposited as GenBank MN268688
T1 sequence (Q6K2E8 44-644 S627N/V643M): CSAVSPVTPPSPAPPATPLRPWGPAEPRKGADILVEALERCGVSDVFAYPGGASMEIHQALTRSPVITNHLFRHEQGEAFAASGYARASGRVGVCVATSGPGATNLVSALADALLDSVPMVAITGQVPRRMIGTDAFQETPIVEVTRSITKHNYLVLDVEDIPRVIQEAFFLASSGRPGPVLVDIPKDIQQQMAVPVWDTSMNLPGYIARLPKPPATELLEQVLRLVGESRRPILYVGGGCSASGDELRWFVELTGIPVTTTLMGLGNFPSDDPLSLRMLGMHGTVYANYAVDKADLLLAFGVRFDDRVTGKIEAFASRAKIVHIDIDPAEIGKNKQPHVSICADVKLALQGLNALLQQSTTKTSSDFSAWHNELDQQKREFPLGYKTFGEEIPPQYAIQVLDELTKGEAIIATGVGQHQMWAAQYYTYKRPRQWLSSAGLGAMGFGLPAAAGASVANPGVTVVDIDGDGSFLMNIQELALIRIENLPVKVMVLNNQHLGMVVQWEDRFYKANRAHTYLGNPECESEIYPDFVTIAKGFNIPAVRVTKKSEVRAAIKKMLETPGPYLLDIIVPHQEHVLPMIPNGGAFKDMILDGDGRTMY

[2] = biological target: T2, AHAS (acetohydroxyacid synthase), MR219 (Oryza sativa, UniProt Q6K2E8, P67T); experiment: as above; assay type: biochemical; settings: cultivar MR219; partially purified leaf extract; 60 min incubation; read-out: I50
T2 construct: gene ALS1; native enzyme, partially purified leaf extract; natural Thr93, Ser653, Val669 (Arabidopsis numbering)
T2 sequence (Q6K2E8 44-644 P67T): T1 sequence (Q6K2E8 44-644 S627N/V643M) with P24T, N584S, M600V

Row | Structure (SMILES) | IC50 [1] | IC50 [2]
1 | Cc1cnc(C2=NC(=O)C(C)(C(C)C)N2)c(C(=O)O)c1 (stereo not shown) [imazapic] | 1.2 nM | 1.7 nM
2 | CC(C)C1(C)N=C(c2ncccc2C(=O)O)NC1=O (stereo not shown) [imazapyr] | 2.5 nM | 1.7 nM
